In PubChem BioAssay (NCI):
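The concentration for 50% growth inhibition is given as GI50. TGI: total growth inhibition.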

Legend:
Assay in all cases: DTP human tumour cell line panel, 384-well format
786-0 renal = test system: 786-0 renal
A498 renal = test system: A498 renal
A549 NSCLC = test system: A549 NSCLC
ACHN renal = test system: ACHN renal
BT-549 breast = test system: BT-549 breast
CAKI-1 renal = test system: CAKI-1 renal
CCRF-CEM leukemia = test system: CCRF-CEM leukemia
COLO 205 colon = test system: COLO 205 colon
DU-145 prostate = test system: DU-145 prostate
EKVX NSCLC = test system: EKVX NSCLC
HCC-2998 colon = test system: HCC-2998 colon
HCT-116 colon = test system: HCT-116 colon
HCT-15 colon = test system: HCT-15 colon
HL-60(TB) leukemia = test system: HL-60(TB) leukemia
HOP-62 NSCLC = test system: HOP-62 NSCLC
HOP-92 NSCLC = test system: HOP-92 NSCLC
HS 578T breast = test system: HS 578T breast
HT29 colon = test system: HT29 colon
IGROV1 ovarian = test system: IGROV1 ovarian
K-562 leukemia = test system: K-562 leukemia
KM12 colon = test system: KM12 colon
LOX IMVI melanoma = test system: LOX IMVI melanoma
M14 melanoma = test system: M14 melanoma
MALME-3M melanoma = test system: MALME-3M melanoma
MCF7 breast = test system: MCF7 breast
MDA-MB-231 breast = test system: MDA-MB-231 breast
MDA-MB-435 melanoma = test system: MDA-MB-435 melanoma
MDA-MB-468 breast = test system: MDA-MB-468 breast
MOLT-4 leukemia = test system: MOLT-4 leukemia
NCI-H226 lung = test system: NCI-H226 lung
NCI-H23 lung = test system: NCI-H23 lung
NCI-H322M lung = test system: NCI-H322M lung
NCI-H460 NSCLC = test system: NCI-H460 NSCLC
NCI-H522 lung = test system: NCI-H522 lung
NCI/ADR-RES ovarian = test system: NCI/ADR-RES ovarian
OVCAR-3 ovarian = test system: OVCAR-3 ovarian
OVCAR-4 ovarian = test system: OVCAR-4 ovarian
OVCAR-8 ovarian = test system: OVCAR-8 ovarian
PC-3 prostate = test system: PC-3 prostate
RPMI-8226 leukemia = test system: RPMI-8226 leukemia
RXF 393 renal = test system: RXF 393 renal
SF-268 CNS = test system: SF-268 CNS
SF-295 CNS = test system: SF-295 CNS
SF-539 CNS = test system: SF-539 CNS
SK-MEL-28 melanoma = test system: SK-MEL-28 melanoma
SK-MEL-5 melanoma = test system: SK-MEL-5 melanoma
SK-OV-3 ovarian = test system: SK-OV-3 ovarian
SN12C renal = test system: SN12C renal
SNB-19 CNS = test system: SNB-19 CNS
SNB-75 CNS = test system: SNB-75 CNS
SR leukemia = test system: SR leukemia
SW-620 colon = test system: SW-620 colon
T-47D breast = test system: T-47D breast
TK-10 renal = test system: TK-10 renal
U251 glioblastoma = test system: U251 glioblastoma
UACC-257 melanoma = test system: UACC-257 melanoma
UACC-62 melanoma = test system: UACC-62 melanoma
UO-31 renal = test system: UO-31 renal

Structure (SMILES): CN(C)C(=O)[C@H](O)[C@H](Cc1ccccc1)NC(=O)c1cc2cc(Cl)ccc2[nH]1
- GI50 ([…]-0 renal): 20.5 µM
- TGI (786-0 renal): 51.1 µM
- GI50 (A498 renal): 26.7 µM
- TGI (A498 renal): 61 µM
- GI50 (A549 NSCLC): 27.3 µM
- TGI (A549 NSCLC): 77 µM
- GI50 (ACHN renal): 28.4 µM
- TGI (ACHN renal): 74.3 µM
- GI50 (BT-549 breast): 20.5 µM
- TGI (BT-549 breast): 47.8 µM
- GI50 (CAKI-1 renal): 25.1 µM
- TGI (CAKI-1 renal): 77.8 µM
- GI50 (CCRF-CEM leukemia): 17.9 µM
- TGI (CCRF-CEM leukemia): 32.7 µM
- GI50 (COLO 205 colon): 41.3 µM
- TGI (COLO 205 colon): > 100 µM
- GI50 (DU-145 prostate): 30.7 µM
- TGI (DU-145 prostate): 91.7 µM
- GI50 (EKVX NSCLC): 32.7 µM
- TGI (EKVX NSCLC): 97.3 µM
- GI50 (HCC-2998 colon): 15.4 µM
- TGI (HCC-2998 colon): 31.8 µM
- GI50 (HCT-116 colon): 22 µM
- TGI (HCT-116 colon): 66.5 µM
- GI50 (HCT-15 colon): 27.5 µM
- TGI (HCT-15 colon): 74.7 µM
- GI50 (HL-60(TB) leukemia): 16.6 µM
- TGI (HL-60(TB) leukemia): 30.5 µM
- GI50 (HOP-62 NSCLC): 22.6 µM
- TGI (HOP-62 NSCLC): 51.7 µM
- GI50 (HOP-92 NSCLC): 26.9 µM
- TGI (HOP-92 NSCLC): 65.8 µM
- GI50 (HS 578T breast): 25.6 µM
- TGI (HS 578T breast): 59.3 µM
- GI50 (HT29 colon): 21.8 µM
- TGI (HT29 colon): 49.1 µM
- GI50 (IGROV1 ovarian): 25.8 µM
- TGI (IGROV1 ovarian): 64.8 µM
- GI50 (K-562 leukemia): 20.2 µM
- TGI (K-562 leukemia): 44.9 µM
- GI50 (KM12 colon): 20.8 µM
- TGI (KM12 colon): 50.9 µM
- GI50 (LOX IMVI melanoma): 20.3 µM
- TGI (LOX IMVI melanoma): 36.1 µM
- GI50 (M14 melanoma): 23.4 µM
- TGI (M14 melanoma): 55.6 µM
- GI50 (MALME-3M melanoma): 21.2 µM
- TGI (MALME-3M melanoma): 55.4 µM
- GI50 (MCF7 breast): 17.8 µM
- TGI (MCF7 breast): 43 µM
- GI50 (MDA-MB-231 breast): 27 µM
- TGI (MDA-MB-231 breast): > 100 µM
- GI50 (MDA-MB-435 melanoma): 38.3 µM
- TGI (MDA-MB-435 melanoma): > 100 µM
- GI50 (MDA-MB-468 breast): 19.1 µM
- TGI (MDA-MB-468 breast): 36.1 µM
- GI50 (MOLT-4 leukemia): 14.4 µM
- TGI (MOLT-4 leukemia): 27.7 µM
- GI50 (NCI-H226 lung): 23.1 µM
- TGI (NCI-H226 lung): 57.5 µM
- GI50 (NCI-H23 lung): 28.1 µM
- TGI (NCI-H23 lung): 77.5 µM
- GI50 (NCI-H322M lung): 28.1 µM
- TGI (NCI-H322M lung): 67.7 µM
- GI50 (NCI-H460 NSCLC): 19.2 µM
- TGI (NCI-H460 NSCLC): 36.2 µM
- GI50 (NCI-H522 lung): 22.6 µM
- TGI (NCI-H522 lung): 58.2 µM
- GI50 (NCI/ADR-RES ovarian): 27.3 µM
- TGI (NCI/ADR-RES ovarian): 70.6 µM
- GI50 (OVCAR-3 ovarian): 16.5 µM
- TGI (OVCAR-3 ovarian): 31.5 µM
- GI50 (OVCAR-4 ovarian): 32 µM
- TGI (OVCAR-4 ovarian): 89.9 µM
- GI50 (OVCAR-8 ovarian): 36.4 µM
- TGI (OVCAR-8 ovarian): > 100 µM
- GI50 (PC-3 prostate): 21.3 µM
- TGI (PC-3 prostate): 46.7 µM
- GI50 (RPMI-8226 leukemia): 13.3 µM
- TGI (RPMI-8226 leukemia): 26.3 µM
- GI50 (RXF 393 renal): 20.7 µM
- TGI (RXF 393 renal): 54.8 µM
- GI50 (SF-268 CNS): 22.2 µM
- TGI (SF-268 CNS): 50.2 µM
- GI50 (SF-295 CNS): 21.8 µM
- TGI (SF-295 CNS): 44.2 µM
- GI50 (SF-539 CNS): 28.3 µM
- TGI (SF-539 CNS): 72.3 µM
- GI50 (SK-MEL-28 melanoma): 31.2 µM
- TGI (SK-MEL-28 melanoma): 88.4 µM
- GI50 (SK-MEL-5 melanoma): 15.6 µM
- TGI (SK-MEL-5 melanoma): 29.4 µM
- GI50 (SK-OV-3 ovarian): 32.9 µM
- TGI (SK-OV-3 ovarian): > 100 µM
- GI50 (SN12C renal): 25.9 µM
- TGI (SN12C renal): 77 µM
- GI50 (SNB-19 CNS): 34.8 µM
- TGI (SNB-19 CNS): > 100 µM
- GI50 (SNB-75 CNS): 31.2 µM
- TGI (SNB-75 CNS): > 100 µM
- GI50 (SR leukemia): 19.5 µM
- TGI (SR leukemia): 33.7 µM
- GI50 (SW-620 colon): 25.3 µM
- TGI (SW-620 colon): 57.1 µM
- GI50 (T-47D breast): 26.9 µM
- TGI (T-47D breast): 99.6 µM
- GI50 (TK-10 renal): 25.1 µM
- TGI (TK-10 renal): 67.9 µM
- GI50 (U251 glioblastoma): 32.7 µM
- TGI (U251 glioblastoma): 96.8 µM
- GI50 (UACC-257 melanoma): 20.5 µM
- TGI (UACC-257 melanoma): 37 µM
- GI50 (UACC-62 melanoma): 18.4 µM
- TGI (UACC-62 melanoma): 41 µM
- GI50 (UO-31 renal): 31.1 µM
- TGI (UO-31 renal): 92 µM
